We go through 14 compounds from ChEMBL document CHEMBL4041536, “Design, synthesis and biological activity of novel molecules designed to target PARP and DNA” (Bioorg Med Chem Lett, 2017).

The species entered for data set [1] is Cricetulus griseus. The data set can be described thus: Inhibition of PARP in chinese hamster VC8 cells harboring BRCA2 mutant assessed as growth inhibition. It is filed as cell-based.
The species entered for data set [2] is Cricetulus griseus. The experiment in a line: Selectivity ratio of PARP inhibition in chinese hamster VC8 cells harboring wild type BRCA2 to PARP inhibition in chinese hamster VC8 cells harboring BRCA2 mutant. Format: cell-based.
A short description of data set [3]: (§1) Inhibition of PARP in chinese hamster VC8 cells harboring BRCA2 mutant. Format: cell-based, Cricetulus griseus.
Data set [4] is filed under the species Cricetulus griseus. The description is as §1. It is filed as cell-based.
The species entered for data set [5] is Cricetulus griseus. The data set can be described thus: Induction of DNA damage in chinese hamster VC8 cells harboring BRCA2 mutant by comet assay. Format: cell-based.
The nature of data set [6]: Drug uptake in nucleus of chinese hamster VC8 cells harboring BRCA2 mutant at 25 uM by DAPI staining based fluorescence microscopic method. Format: ADME, Cricetulus griseus.
Data set [7] in a line: Drug uptake in nucleus of chinese hamster VC8 cells harboring wild type BRCA2 at 25 uM by DAPI staining based fluorescence microscopic method. Format: ADME, Cricetulus griseus.
A short description of data set [8]: Inhibition of PARP (unknown origin). Set-up: species or system Homo sapiens.
Data set [9] in a line: Inhibition of PARP in Wistar rat pancreatic islet nuclear fraction using histone H1 as substrate in presence of [14C]NAD after 10 mins by scintillation counting method.

Calls of active or inactive are those of the source. No cut-off for these calls is given here.

As for `Nc1cccc2c(=O)[nH]ccc12`, in the data set listed under Cricetulus griseus [1], the inhibition entry was “inactive”. The IC50 is the concentration that inhibits the measured activity by half. For the compound `O=C1NC(=O)c2ccc([N+]3=NN(CCCl)CC3)c3cccc1c23.[Cl-]`, the Selectivity ratio in the data set filed under Cricetulus griseus [2] was 25. In [3], the IC50 is 1 to 1.7 µM. Moreover, the inhibition result in the data set filed under Cricetulus griseus [4] is “Dose-dependent effect”. Also, in the data set filed under Cricetulus griseus [5], the outcome was Active. The Drug uptake entry in data set [6] and in data set [7] was “Not Active” each time.

Turning to `CN(CO)/N=N/c1cccc2c(=O)[nH]ccc12`, in the data set listed under Cricetulus griseus [1], the inhibition result is “inactive”. Besides, the Selectivity ratio in the data set filed under Cricetulus griseus [2] was in the range of 2 to 7. Take `O=C1NC(=O)c2ccc(/N=N/N(CCCl)CCCl)c3cccc1c23`: in the data set filed under Cricetulus griseus [1], the inhibition result is “inactive”. With `CN/N=N/c1ccc2c3c(cccc13)C(=O)NC2=O`, the inhibition entry in the data set listed under Cricetulus griseus [1] is “inactive”. For the same compound, the Selectivity ratio in the data set listed under Cricetulus griseus [2] was in the range of 2 to 7. As to `CN/N=N/c1cccc2c(=O)[nH]ccc12`, the inhibition entry in the data set listed under Cricetulus griseus [1] was “inactive”. Further, in the data set listed under Cricetulus griseus [2], the Selectivity ratio was 2 to 7. In the case of `CN(C)/N=N/c1ccc2c3c(cccc13)C(=O)NC2=O`, in the data set listed under Cricetulus griseus [1], the inhibition entry was “inactive”. The Selectivity ratio in the data set listed under Cricetulus griseus [2] lay in the range of 2 to 7. Consider `Cc1nc2ccccc2c(=O)[nH]1`, for which the IC50 in data set [8] is 5 to 120 µM. As for `Nc1ccc2c3c(cccc13)C(=O)NC2=O`, in the data set listed under Cricetulus griseus [2], the Selectivity ratio is 77. The same compound displayed an IC50 in data set [3] of 2.59 µM. As to `CN(C)/N=N/c1cccc2c(=O)[nH]ccc12`, the inhibition entry in the data set filed under Cricetulus griseus [1] is “inactive”. Moreover, in the data set filed under Cricetulus griseus [2], the Selectivity ratio is 2 to 7. The matching figures for `CN(CO)/N=N/c1ccc2c3c(cccc13)C(=O)NC2=O`: “inactive” and 2 to 7. `ClCCN1CC[N+](c2ccc3ncnc(Nc4cccc(Cl)c4)c3c2)=N1`: the midpoint of inhibition in [3], the IC50, lay at 15.2 µM. Besides, in the data set filed under Cricetulus griseus [5], the outcome was Active. In [3], `O=c1[nH]ccc2c([N+]3=NN(CCCl)CC3)cccc12` had an IC50 of 23.9 µM.

Turning to `NC(=O)c1cccc(N)c1` [3-AMINOBENZAMIDE], the half-inhibitory concentration (IC50) in data set [9] lay within 5 to 120 µM.
